Experimental data published in patent US20090286693A1, “MICROARRAYS OF TAGGED COMBINATORIAL TRIAZINE LIBRARIES” (New York University, NYU Medical Center, Department of …, priority 2001, published 2009).
Read-outs that look alike come from different tables or passages of the source.

Tests used:
[1] = system: other fluorescently labeled proteins (unrelated to human IgG); assay: Control microarray screening with unrelated fluorescently labeled proteins; conditions: same slide screened with other fluorescently labeled proteins; no positive binding
human IgG [2] = system: T1, human IgG; assay: Small-molecule microarray screening with Cy3-labeled human IgG; type: binding; conditions: for microarray hit strength in words: based on spot intensity; for array signal (fluorescence units): spot intensity, background subtracted
T1 construct: array signal (fluorescence units); other: spot intensity, background subtracted; human IgG-Cy3; array signal class; other: symbol in brackets after the fluorescence units; microarray hit strength in words; other: based on spot intensity, human IgG-Cy3; fused on or other part: Cy3 dye coupled through the NHS ester (chemical label, no fusion)
Description: Human IgG was fluorescently labeled with Cy3-NHS to allow for sensitive visualization of small molecule-IgG interactions on the array. […] The resulting scans were typical to that seen in FIG. 1. […] The spot intensities of these molecules are given in Table 1, with the background subtracted accordingly.
Preparation and Analysis of Small-Molecule Arrays. Preparation of Slides Activated with N-Hydroxysuccinimide Esters. 2 Briefly, 25 mm×75 mm slides (Fisher Scientific) were cleaned in piranha solution (sulfuric acid/hydrogen peroxide, 7:3). An amine functionality was incorporated onto the slides by silanization using a solution of 3% (aminopropyl)triethoxysilane in 2% water and 95% ethanol. After 1-2 h of soaking, the slides were washed with ethanol and cured at 150° C. for at least 2 h. Subsequently, the amine slides were incubated in a solution of 180 mM succinic anhydride in DMF for 30 min thereafter were transferred to a boiling water bath for 2 min. The slides were washed again in ethanol and dried under a stream of nitrogen. The carboxylic acid moieties now created on the slide surface were activated with a solution of 100 mM of TBTU (O-(benzotriazol-1-yl)-N,N,N,N-tetramethyluronium tetrafluoroborate), 200 mM DIEA, and 100 mM N-hydroxysuccinimide in DMF, thus generating the NHS-derivatized slides.
Microarray Printing. By individually weighing the solid compounds, triazine stock solutions were prepared to 2.5 mM in DMF, and 40-iL preparations were distributed across seven 384-well plates to give a total of 2688 distinct and pure compounds. Slides were spotted on an ESI SMA arrayer (Ontario, Canada) with the printhead installed with eight ArrayIt Chipmaker 7 Microspotting pins (Telechem, U.S.A.). Printing was performed in duplicate, and the pins were washed and sonicated in ethanol between samples. A repotting blotting process was also performed on plain slides to ensure spot uniformity. An additional solution of 0.2 mM Cy3-NH2 11 reference was spotted at the ends of the grids using a final eighth plate.
After spotting, the slides were allowed to sit for at least 12 h in situ and then were quenched by washing in an 1% ethanolamine (in DMF) bath for 2 h. After rinsing with Journal of Combinatorial Chemistry Discovery of Small-Molecule Ligands of Human IgG E ethanol and drying, the arrayed slides were stored in a desiccator at 4° C. The slides were stable for extended periods and, when required, were simply brought to room temperature.
Protein Screening with Labeled Human IgG. Proteins were tagged with Cy3-NHS by incubating 5 iL of 20 mM Cy3-NHS (Amersham Biosciences, U.K.) with 200 ig of human IgG (Calbiochem, U.S.A.) in a sodium bicarbonate buffer at pH 8. After 1 h of incubation, the labeled protein was separated from the free dye by a NAP-5 Sephadex G-50 column (Amersham Biosciences, U.K.). Before incubation with the labeled protein, the slides were preblocked to remove any nonspecific binding by soaking in 1% BSA in PBS for 1 h. After a brief rinsing with water, the slides were incubated with the labeled IgG.
A 1000-fold dilution of the above protein preparation was used as the incubation solution in a PBS buffer containing 1% BSA with the small-molecule arrays using the cover slip method for 30 min in a humid incubation chamber. Excess IgG was then removed by washing with distilled water. The background was further reduced using repeated washes with PBST.
Slide Scanning and Analysis. Slides were scanned on an ArrayWoRx scanner (Applied Precision, U.S.A.). Excel sheets were prepared to assign various compounds to specific numberings that could be readily tallied with reference numbers generated by the program. The ArrayWoRx software allows generation of reference files in which the spotting arrangement and the program overlay the spots on the results obtained, allowing compounds to be assigned in a rational fashion to every position. […]

human IgG [3] = target: T2, human IgG; assay: SPR (Biacore X) competitive binding with protein A on CM-5 chip immobilized with human IgG, dissociation constants
T2 construct: Kd/M; other: SPR, small molecule premixed with protein A, IgG immobilized; averaged dissociation constant; other: protein A with IgG alone
Procedure: Dissociation constants were determined for each of the compounds selected using SPR on a Biacore X system with BiaEvaluation software. Competitive binding experiments were performed with differentially proportioned mixtures of a small molecule and protein A on a CM-5 chip immobilized with human IgG (see Supporting Information) (Table 1), which also ensures the small molecule binding to the same Scheme 2. General Experimental Scheme a (a) Directed immobilization of triazine libraries to generate a high-density microarray. (B) Incubation with a fluorescently labeled protein. (C) Removal of the unbound protein through washing. (D) Detection with instantaneous deconvolution of positive hits. (E) Assessing efficacy of hits using SPR. An averaged dissociation constant of 1.25×10−9 M was obtained for protein A with IgG alone. Further assessments made by passing 2.5 iM of a small molecule against the IgG surface were also performed to give measurable association levels that correlate with binding affinities (Table 1). Immobilizing the small molecules and applying IgG in the solution phase obtained equivalent binding measurements; however, by employing the competitive binding method described, a single chip surface may be used for screening against multiple potential small-molecule ligands, economizing the process. A φ2 value of <10 was obtained for all Kd measurements, denoting good statistical validity of the results obtained.
Surface Plasmon Resonance (SPR) Determination of Dissociation Constants. Maintenance. SPR measurements were made on a Biacore X system (Biacore AB, Uppsala, Sweden). Various maintenance steps were performed to ensure that the instrument was kept in good working conditions. The integrated flow cell was washed, sanitized, and maintained using standard cleansing reagents on a weekly basis. Calibration checks were performed quarterly to ensure that the signal was of good quality, and the instrument was kept separate from other equipments to prevent interference. When not in use, the system was docked with a spare chip and flushed with water at a low flow rate of 5 iL/min to prevent clogging. The system was primed at least twice before use or for the purpose of initiating a new buffer type. A desorb process was performed every 2 days during periods of active use to remove proteins or other contaminating compounds that may have accumulated within the flow cell.
Procedures. Various approaches were conceived to assess the Kd values of the interactions. One successful method immobilized the small molecule on the CM-5 sensor chips and ran them through varying concentrations of IgG. […] We conceived that it would be easier to immobilize IgG on the surface and apply differing proportioned mixtures of the “hit” small molecule and protein A (Amersham Biosciences, U.K.). […]

[4] = SPR, small molecule premixed with protein A, IgG immobilized, read-out: Kd/M

Row | specificity of binding toward human IgG [1] | Kd (human IgG [3]; [4]) | Compound | microarray hit strength in words (human IgG [2]) | array signal (fluorescence units) (human IgG [2]) | Kd (human IgG [3]; protein A with IgG alone, read-out: averaged dissociation constant)
1 | highly specific | 2.02 µM | NCCOCCOCCNC(=O)c1ccc(CNc2nc(NCC3CCCCC3)nc(NC3CC4CCC3C4)n2)cc1 (stereo not drawn) [AMD03] | strongest hits | 185 fluorescence units | –
2 | – | 151 µM | COc1ccc(CNc2nc(Nc3ccc(CC(=O)NCCOCCOCCN)cc3)nc(N3CCCCC3)n2)cc1 [APF29] | negative | < 10 fluorescence units | –
3 | – | – | protein A: staphylococcal protein A (Amersham Biosciences), high molecular weight IgG ligand used as SPR competitor [reference compound] | – | – | 0.00125 µM
4 | highly specific | 4.35 µM | NCCOCCOCCNC(=O)c1ccc(CNc2nc(NCC3CCCCC3)nc(NC3CCC3)n2)cc1 [AMD10] | strongest hits | 179 fluorescence units | –
